Data on 11 compounds can be found in patent US20080171750A1, “Modulation Of Neurogenesis With Use of Modafinil” (BrainCells, Inc., priority 2007, published 2008).

One assay concerns the target mGluR3 (Homo sapiens, UniProt Q14832). Conditions: read-out: IC50 against mGluR3; cited from earlier work.
Assay [1] concerns Group I or Group III receptors. The conditions noted are these: at sub-mM concentrations; cited from earlier work.
A further assay deals with mGluR2 (Homo sapiens, UniProt Q14416). The conditions noted are these: read-out: IC50 against mGluR2; cited from earlier work.
mGluR2, sequence (Q14416 19-872): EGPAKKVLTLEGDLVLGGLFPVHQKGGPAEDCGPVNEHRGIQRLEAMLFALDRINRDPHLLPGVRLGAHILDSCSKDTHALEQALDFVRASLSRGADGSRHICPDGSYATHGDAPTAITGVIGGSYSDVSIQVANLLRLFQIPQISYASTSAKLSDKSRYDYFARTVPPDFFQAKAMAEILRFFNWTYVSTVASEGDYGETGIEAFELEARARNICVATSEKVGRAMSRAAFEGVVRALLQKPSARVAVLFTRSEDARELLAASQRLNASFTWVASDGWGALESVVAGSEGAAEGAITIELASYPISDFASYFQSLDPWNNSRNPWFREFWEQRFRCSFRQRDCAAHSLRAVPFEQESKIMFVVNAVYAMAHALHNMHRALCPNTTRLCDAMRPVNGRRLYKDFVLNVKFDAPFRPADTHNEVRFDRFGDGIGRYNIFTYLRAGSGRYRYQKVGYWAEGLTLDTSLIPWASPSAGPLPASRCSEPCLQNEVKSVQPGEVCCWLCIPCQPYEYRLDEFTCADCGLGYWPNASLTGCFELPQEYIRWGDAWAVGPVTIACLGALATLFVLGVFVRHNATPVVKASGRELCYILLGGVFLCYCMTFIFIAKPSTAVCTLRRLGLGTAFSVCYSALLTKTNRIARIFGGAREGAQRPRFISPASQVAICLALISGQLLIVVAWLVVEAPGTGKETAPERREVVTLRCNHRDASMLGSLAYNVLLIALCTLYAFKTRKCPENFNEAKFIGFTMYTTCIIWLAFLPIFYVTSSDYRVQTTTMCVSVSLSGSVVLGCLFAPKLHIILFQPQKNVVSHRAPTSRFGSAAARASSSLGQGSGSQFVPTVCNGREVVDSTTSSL
Assay [2] deals with KA, AMPA, and NMDA iGlu receptors. Conditions: cited from earlier work.
In another assay the target is human mGlu3 receptors (Homo sapiens, UniProt Q14832). The conditions noted are these: low nanomolar range; read-out: EC50 against human mGlu3 receptors in vitro; cited from earlier work.
human mGlu3 receptors, sequence (Q14832 23-879): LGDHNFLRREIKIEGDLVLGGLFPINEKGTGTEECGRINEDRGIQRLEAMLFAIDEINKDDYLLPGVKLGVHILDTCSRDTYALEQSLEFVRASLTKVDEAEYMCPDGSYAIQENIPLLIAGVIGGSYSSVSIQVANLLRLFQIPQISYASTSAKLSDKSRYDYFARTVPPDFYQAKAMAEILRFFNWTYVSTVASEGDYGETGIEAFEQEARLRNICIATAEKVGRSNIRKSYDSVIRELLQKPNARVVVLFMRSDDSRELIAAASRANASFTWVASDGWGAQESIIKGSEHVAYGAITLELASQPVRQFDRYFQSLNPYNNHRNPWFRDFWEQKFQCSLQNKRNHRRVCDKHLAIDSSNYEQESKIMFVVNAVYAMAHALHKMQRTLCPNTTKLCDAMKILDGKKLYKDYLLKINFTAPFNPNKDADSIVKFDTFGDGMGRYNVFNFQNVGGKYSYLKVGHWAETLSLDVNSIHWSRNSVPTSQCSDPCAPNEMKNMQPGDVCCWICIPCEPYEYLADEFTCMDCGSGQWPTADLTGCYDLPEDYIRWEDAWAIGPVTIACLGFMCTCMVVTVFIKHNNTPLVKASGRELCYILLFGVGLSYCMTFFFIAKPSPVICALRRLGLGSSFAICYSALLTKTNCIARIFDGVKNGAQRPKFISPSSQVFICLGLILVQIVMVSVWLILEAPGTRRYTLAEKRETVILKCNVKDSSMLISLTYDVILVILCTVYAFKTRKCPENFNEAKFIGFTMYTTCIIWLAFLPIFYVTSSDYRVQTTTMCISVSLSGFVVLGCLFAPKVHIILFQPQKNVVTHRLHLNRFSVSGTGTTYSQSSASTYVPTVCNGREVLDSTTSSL
In another assay the target is human mGlu2 receptors (Homo sapiens, UniProt Q14416). The conditions noted are these: low nanomolar range; read-out: EC50 against human mGlu2 receptors in vitro; cited from earlier work.
human mGlu2 receptors, sequence (Q14416 19-872): as the sequence (Q14416 19-872) above
The subject of assay [3] is Human neural stem cells (hNSCs). Kind of assay: Neuronal differentiation of human neural stem cells (TUJ-1 staining). Format: cell-based. The conditions noted are these: for maximum neuronal differentiation percent of positive control: basal media values subtracted, 0.01 μM to 31.6 μM. As for the experimental part: Mitogen-free test media with a positive control for neuronal differentiation was used along with basal media without growth factors as a negative control.
The presence of synergy was determined by use of a combination index (CI). […] The CI is a quantitative measure of the nature of drug interactions, comparing the EC50's of two compounds, when each is assayed alone, to the EC50 of each compound when assayed in combination. The combination index (CI) is equal to the following formula: […]
where C1 and C2 are the concentrations of a first and a second compound, respectively, resulting in 50% activity in neuronal differentiation when assayed in combination; and IC1 and IC2 are the concentrations of each compound resulting in 50% activity when assayed independently.

For assay [4] the test system is unchanged. In words: Astrocyte differentiation of human neural stem cells (GFAP staining). The format is cell-based.
Where [5] appears, read: Homo sapiens, Neural stem cell, agent alone, concentration response curve 0.01 μM to 31.6 μM (antalarmin to 3.16 μM), modafinil batch of FIG. 1-3, read-out: EC50, neuronal differentiation, agent used alone.
Where [6] appears, read: Homo sapiens, Neural stem cell, read-out: EC50, neuronal differentiation, agent alone (FIG. 8 experiment).

pEC50, pIC50: −log10 of the molar value. Read-outs that look alike come from different tables or passages of the source.

mGluR3, sequence (Q14832 23-879): as the sequence (Q14832 23-879) above

Consider `NC1(C(=O)O)CCc2cc(P(=O)(O)O)ccc21` (racemic) [APICA, (RS)-1-amino-5-phosphonoindan-1-carboxylic acid], for which the pIC50 on mGluR3 and on mGluR2 was around 4.52 in each case. In assay [1], the “activity against Group I or Group III receptors” value is on record as “no appreciable activity”.

In the case of `N[C@](CC1c2ccccc2Oc2ccccc21)(C(=O)O)[C@H]1C[C@@H]1C(=O)O` [LY341495, (2S)-2-amino-2-(1S,2S-2-carboxycycloprop-1-yl)-3-(xanth-9-yl) propanoic acid], in assay [2], the “activity against KA, AMPA, and NMDA iGlu receptors” value is “substantially inactive”.

For the compound `N[C@@]1(C(=O)O)CO[C@H]2[C@H](C(=O)O)[C@H]21` [LY379268, (−)-2-Oxa-4-aminobicyclohexane-4,6-dicarboxylic acid], the negative logarithm of the EC50 (pEC50) at human mGlu3 receptors and at human mGlu2 receptors was above 8.00 in each case.

In the case of `Cc1oc2nc3c(c(NC(=O)CN4CCCC4=O)c2c1C)CCCC3` [MKC-231], in assay [3] (agent alone, concentration response curve 0.01 μM to 31.6 μM (antalarmin to 3.16 μM), modafinil batch of FIG. 1-3, read-out: EC50, neuronal differentiation, agent used alone), the pEC50 is 5.41. For the same compound, the “maximum neuronal differentiation percent of positive control” value (from here on “maximum neuronal differentiation percent”) in assay [3] is recorded as 53%.

On to `CC(=O)NCCCS(=O)(=O)O` [acamprosate], for which, in assay [3] (setting [5]), the pEC50 was around 4.41.

With `CCCCN(CC)c1nc(C)nc2c1c(C)c(C)n2-c1c(C)cc(C)cc1C` [antalarmin], the pEC50 in assay [3] (setting [5]) is around 4.46.

As for `NC(=O)C[S@@+]([O-])C(c1ccccc1)c1ccccc1` [armodafinil, (−)-2-[(R)-(diphenylmethyl)-sulfinyl]acetamide], the pEC50 in assay [3] (setting [6]) was around 5.91.

As for `CN1C(=O)COc2c(C(=O)NC3CN4CCC3CC4)cc(Cl)cc21` (stereo not shown) [azasetron], the pEC50 in assay [3] (setting [5]) was around 5.04.

In the case of `O=C1CC2(CCCC2)CC(=O)N1CCCCN1CCN(c2ncccn2)CC1` [buspirone], the “maximum astrocyte differentiation percent of positive control” value in assay [4] (basal media values subtracted, 0.01 μM to 31.6 μM) was determined as 59%. The pEC50 in assay [3] (setting [5]) is 5.08. In addition, the “maximum neuronal differentiation percent” value in assay [3] was 52%.

Turning to `NC(=O)C[S+]([O-])C(c1ccccc1)c1ccccc1` (stereo not shown) [modafinil, 2-benzhydrylsulfinylethanamide], the astrogenesis produced result in assay [4] (modafinil alone) is reported as “little or no astrogenesis”. Also, the pEC50 in assay [3] (setting [6]) is 5.71; in assay [3] (Homo sapiens, Neural stem cell, read-out: EC50, neuronal differentiation, agent used alone), below 4.50; in assay [3] (Homo sapiens, Neural stem cell, read-out: EC50, neuronal differentiation, modafinil alone (batch 2)), 5.54; in assay [3] (Homo sapiens, Neural stem cell, read-out: EC50 of modafinil alone, estimated based on extrapolation), around 4.08. Moreover, the “maximum neuronal differentiation percent” value in assay [3] worked out at 19%.

For the compound `NCCc1c[nH]c2ccc(O)cc12` [serotonin, 5-hydroxytryptamine], the pEC50 in assay [3] (setting [5]) was around 5.16.

In general, pIC50 refers to −log10 of the IC50, conventionally taken in molar units. In general, pEC50 refers to the EC50 on a negative log10 scale, so that one unit is a factor of ten.
